# Several values for one entry are separate records, joined by “and”; a condition that tells them apart may be missing. Equal entries are not always repeated. Where two headings read alike, the source gives them in different places.
# Experiments:
# SARS2 = assay type: cell-based, SARS-CoV-2; details: for Percentage Infection Relative to Appropriate DMSO Control with Avg Background Subtraction: single well
structure (smiles),measurement,setting,value
OC(COc1c(CNCCc2ccccc2F)cccc1N1CCNCC1)CN1CCCC1 (stereo not shown) [SILCS22],SARS2 antiviral activity,SARS2,activity approaching that of UMB18
same,"Infection Data, Average, Mean","SARS2; Average of Exp 1-3, n 9, 1 uM",72.38%
same,"Infection Data, Average, Mean","SARS2; Average of Exp 1-3, n 9, 5 uM",70.31%
same,"Infection Data, Average, Mean","SARS2; Average of Exp 1-3, n 9, 10 uM",53.13%
same,"Infection Data, Average, Mean","SARS2; Average of Exp 1-3, n 9, 25 uM",6.37%
same,"Infection Data, Average, Mean","SARS2; Average of Exp 1-3, n 9, 50 uM",2.68%
same,Percentage Infection Relative to Appropriate DMSO Control with Avg Background Subtraction,"SARS2; Exp 1 (SMW475), 1 uM",68.46% and 64.64% and 77.37%
same,Percentage Infection Relative to Appropriate DMSO Control with Avg Background Subtraction,"SARS2; Exp 1 (SMW475), 5 uM",32.75% and 46.98% and 35.47%
same,Percentage Infection Relative to Appropriate DMSO Control with Avg Background Subtraction,"SARS2; Exp 1 (SMW475), 10 uM",15.62% and 28.80% and 29.55%
same,Percentage Infection Relative to Appropriate DMSO Control with Avg Background Subtraction,"SARS2; Exp 1 (SMW475), 25 uM",2.49% and 6.38% and 4.75%
same,Percentage Infection Relative to Appropriate DMSO Control with Avg Background Subtraction,"SARS2; Exp 1 (SMW475), 50 uM",0.02% and 3.92% and 4.65%
same,Percentage Infection Relative to Appropriate DMSO Control with Avg Background Subtraction,"SARS2; Exp 2 (SMW477), 1 uM",76.88% and 75.65% and 76.95%
same,Percentage Infection Relative to Appropriate DMSO Control with Avg Background Subtraction,"SARS2; Exp 2 (SMW477), 5 uM",93.66% and 92.49% and 88.62%
same,Percentage Infection Relative to Appropriate DMSO Control with Avg Background Subtraction,"SARS2; Exp 2 (SMW477), 10 uM",68.54% and 46.53% and 47.36%
same,Percentage Infection Relative to Appropriate DMSO Control with Avg Background Subtraction,"SARS2; Exp 2 (SMW477), 25 uM",5.13% and 4.50% and 4.04%
same,Percentage Infection Relative to Appropriate DMSO Control with Avg Background Subtraction,"SARS2; Exp 2 (SMW477), 50 uM",3.65% and 0.99% and 1.90%
same,Percentage Infection Relative to Appropriate DMSO Control with Avg Background Subtraction,"SARS2; Exp 3 (SMW478), 1 uM",62.06% and 83.81% and 65.64%
same,Percentage Infection Relative to Appropriate DMSO Control with Avg Background Subtraction,"SARS2; Exp 3 (SMW478), 5 uM",69.69% and 88.68% and 84.47%
same,Percentage Infection Relative to Appropriate DMSO Control with Avg Background Subtraction,"SARS2; Exp 3 (SMW478), 10 uM",92.75% and 69.87% and 79.13%
same,Percentage Infection Relative to Appropriate DMSO Control with Avg Background Subtraction,"SARS2; Exp 3 (SMW478), 25 uM",8.14% and 10.91% and 10.99%
same,Percentage Infection Relative to Appropriate DMSO Control with Avg Background Subtraction,"SARS2; Exp 3 (SMW478), 50 uM",1.60% and 3.82% and 3.54%
same,Percentage Inhibition Average 1 μM,"SARS2; SARS2, 1 μM",27.62%
same,Screening data (Relative infection to DMSO controls) Average 1 μM,"SARS2; SARS2, 1 μM, 100=DMSO control",72.38
same,Percentage Inhibition Average 5 μM,"SARS2; SARS2, 5 μM",29.69%
same,Screening data (Relative infection to DMSO controls) Average 5 μM,"SARS2; SARS2, 5 μM, 100=DMSO control",70.31
same,Percentage Inhibition Average 10 μM,"SARS2; SARS2, 10 μM",46.87%
same,Screening data (Relative infection to DMSO controls) Average 10 μM,"SARS2; SARS2, 10 μM, 100=DMSO control",53.13
same,Percentage Inhibition Average 25 μM,"SARS2; SARS2, 25 μM",93.63%
same,Screening data (Relative infection to DMSO controls) Average 25 μM,"SARS2; SARS2, 25 μM, 100=DMSO control",6.37
same,Percentage Inhibition Average 50 μM,"SARS2; SARS2, 50 μM",97.32%
same,Screening data (Relative infection to DMSO controls) Average 50 μM,"SARS2; SARS2, 50 μM, 100=DMSO control",2.68
same,Average (relative infection to DMSO over the 5 tested concentrations),"SARS2; SARS2, average over 1 to 50 uM, 100=DMSO control",40.97
same,"Relative cell count to DMSO controls, Average 1 μM","cells (nuclei count); 1 μM, toxicity data, 100=DMSO control",126.41
same,"Relative cell count to DMSO controls, Average 5 μM","cells (nuclei count); 5 μM, toxicity data, 100=DMSO control",125.64
same,"Relative cell count to DMSO controls, Average 10 μM","cells (nuclei count); 10 μM, toxicity data, 100=DMSO control",137.18
same,"Relative cell count to DMSO controls, Average 25 μM","cells (nuclei count); 25 μM, toxicity data, 100=DMSO control",131.85
same,"Relative cell count to DMSO controls, Average 50 μM","cells (nuclei count); 50 μM, toxicity data, 100=DMSO control",68.81
same,"Toxicity Data, Average, Mean","cells (nuclei count); Average of Exp 1-3, n 9, 1 uM",126.41%
same,"Toxicity Data, Average, Mean","cells (nuclei count); Average of Exp 1-3, n 9, 5 uM",125.64%
same,"Toxicity Data, Average, Mean","cells (nuclei count); Average of Exp 1-3, n 9, 10 uM",137.18%
same,"Toxicity Data, Average, Mean","cells (nuclei count); Average of Exp 1-3, n 9, 25 uM",131.85%
same,"Toxicity Data, Average, Mean","cells (nuclei count); Average of Exp 1-3, n 9, 50 uM",68.81%
same,"Relative cell count to DMSO controls, Average (for correlation analysis)",cells (nuclei count); average value over the 5 tested concentrations (1 to 50 uM),117.98

# — US20240132484A1, “BROAD SPECTRUM ANTIVIRAL COMPOUNDS TARGETING THE SKI COMPLEX” (priority 2020, published 2024)
